Test results as given in the NIST ThermoML archive (doi:10.1016/j.jct.2011.07.018).

Key:
[1] = excess molar enthalpy (molar enthalpy of mixing); xn = mol fraction of the nth substance listed; conditions: 298.15 K, 101 kPa, Liquid, isothermal titration calorimeter
[2] = 298.15 K; 101.33 kPa; Liquid; Vibrating tube method

CCCCCCC(C)=O [2-octanone] + CCCCCCO
[1]
Conditions	excess molar enthalpy [kJ/mol]
x2 = 0.021	0.115
x2 = 0.041	0.217
x2 = 0.06	0.31
x2 = 0.079	0.393
x2 = 0.097	0.469
x2 = 0.114	0.538
x2 = 0.13	0.599
x2 = 0.146	0.655
x2 = 0.164	0.714
x2 = 0.181	0.767
x2 = 0.197	0.816
x2 = 0.213	0.858
x2 = 0.228	0.897
x2 = 0.242	0.932
x2 = 0.259	0.969
x2 = 0.275	1
x2 = 0.29	1.03
x2 = 0.304	1.06
x2 = 0.314	1.08
x2 = 0.322	1.09
x2 = 0.331	1.1
x2 = 0.339	1.12
x2 = 0.349	1.13
x2 = 0.359	1.14
x2 = 0.367	1.15
x2 = 0.376	1.16
x2 = 0.385	1.17
x2 = 0.394	1.18
x2 = 0.405	1.19
x2 = 0.415	1.2
x2 = 0.426	1.2
x2 = 0.438	1.21
x2 = 0.448	1.21
x2 = 0.458	1.22
x2 = 0.469	1.22
x2 = 0.48	1.22
x2 = 0.492	1.22
x2 = 0.504	1.22
x2 = 0.517	1.22
x2 = 0.531	1.22
x2 = 0.542	1.21
x2 = 0.554	1.21
x2 = 0.566	1.2
x2 = 0.58	1.19
x2 = 0.593	1.18
x2 = 0.608	1.17
x2 = 0.623	1.15
x2 = 0.638	1.13
x2 = 0.652	1.11
x2 = 0.667	1.09
x2 = 0.682	1.07
x2 = 0.698	1.04
x2 = 0.714	1.01
x2 = 0.731	0.974
x2 = 0.746	0.942
x2 = 0.762	0.906
x2 = 0.778	0.866
x2 = 0.795	0.822
x2 = 0.812	0.772
x2 = 0.83	0.717
x2 = 0.85	0.655
x2 = 0.866	0.599
x2 = 0.879	0.538
x2 = 0.897	0.47
x2 = 0.916	0.395
x2 = 0.936	0.312
x2 = 0.956	0.22
x2 = 0.978	0.116

CCCCCC(=O)O [hexanoic acid]
Conditions	mass density [kg/m3]
[2]	922.06

CCCCCCCC(=O)O [octanoic acid] + CCCCCCO
[1]
Conditions	excess molar enthalpy [kJ/mol]
x2 = 0.038	0.156
x2 = 0.074	0.272
x2 = 0.106	0.363
x2 = 0.137	0.438
x2 = 0.167	0.501
x2 = 0.18	0.552
x2 = 0.186	0.564
x2 = 0.193	0.576
x2 = 0.201	0.589
x2 = 0.209	0.602
x2 = 0.218	0.616
x2 = 0.228	0.63
x2 = 0.239	0.643
x2 = 0.251	0.656
x2 = 0.261	0.668
x2 = 0.273	0.679
x2 = 0.286	0.689
x2 = 0.3	0.699
x2 = 0.31	0.706
x2 = 0.322	0.713
x2 = 0.334	0.72
x2 = 0.347	0.725
x2 = 0.361	0.73
x2 = 0.377	0.733
x2 = 0.394	0.736
x2 = 0.407	0.735
x2 = 0.422	0.734
x2 = 0.437	0.732
x2 = 0.454	0.728
x2 = 0.472	0.722
x2 = 0.492	0.714
x2 = 0.508	0.705
x2 = 0.526	0.694
x2 = 0.544	0.68
x2 = 0.564	0.663
x2 = 0.586	0.643
x2 = 0.607	0.621
x2 = 0.629	0.599
x2 = 0.65	0.574
x2 = 0.672	0.545
x2 = 0.696	0.514
x2 = 0.722	0.477
x2 = 0.749	0.44
x2 = 0.773	0.404
x2 = 0.798	0.365
x2 = 0.825	0.32
x2 = 0.853	0.27
x2 = 0.884	0.221
x2 = 0.91	0.171
x2 = 0.938	0.118
x2 = 0.968	0.061
